This note sets out measurements from ChEMBL document CHEMBL1146758, “Design, synthesis and structure-activity relationship studies of novel indazole analogues as DNA gyrase inhibitors with Gram-positive antibacterial activity” (Bioorg Med Chem Lett, 2004).

Experiment [1] concerns the target DNA gyrase (Escherichia coli, UniProt P0AES4+P0AES6). The experiment in a line: (§1) Inhibitory activity against Escherichia coli DNA gyrase. In kind it is protein-complex assay.
Experiment [2] relates to Enterococcus faecalis. Nature of the experiment: Inhibitory activity against Enterococcus faecalis ATCC 29212. The experiment is classed as functional.
In experiment [3] the test system is Enterococcus faecalis. The experiment in a line: Inhibitory activity against Enterococcus faecalis KU 1777. In kind it is functional.
Experiment [4] concerns Staphylococcus aureus. Nature of the experiment: Inhibitory activity against Staphylococcus aureus FDA 209P. The experiment is classed as functional.
Experiment [5] deals with Staphylococcus aureus. Nature of the experiment: Inhibitory activity against Staphylococcus aureus KMP9. The experiment is classed as functional.
Another experiment concerns Nucleic Acid. The experiment in a line: Escherichia coli DNA topoisomerase IV decatenation activity was determined. In kind it is nucleic-acid assay.
For the next experiment, the target named is DNA topoisomerase II (Homo sapiens, UniProt P11388+Q02880). The experiment in a line: Human DNA topoisomerase II relaxation activity was determined. In kind it is protein assay.
The target of experiment [6] is DNA gyrase (Escherichia coli, UniProt P0AES6+P0AES4). Described as §1. The experiment is classed as protein-complex assay.
The mark [7] stands for this setting: Staphylococcus aureus, read-out: MIC.
The mark [8] stands for this setting: Enterococcus faecalis, ATCC 29212, read-out: MIC.
Setting [9] is: Enterococcus faecalis, read-out: MIC.

Values after ≈ are worked out from the molar mass of the structure shown.

In the case of `COC(=O)C1CCCC(NCc2cc(/C=C\c3cn(C)c4ccc(Cl)cc34)[nH]n2)C1` (stereo in doubt; 8ba), half-maximal inhibition on DNA gyrase [1] (IC50) was put at 2.34 µM. Besides, the MIC against Enterococcus faecalis [2] is 8 µg/mL (≈ 18.7 µM); against Enterococcus faecalis [3], 8 µg/mL (≈ 18.7 µM); in the experiment with Staphylococcus aureus [4] (setting [7]) it was 4 µg/mL (≈ 9.37 µM); in the experiment on Staphylococcus aureus [5] (setting [7]) it was 8 µg/mL (≈ 18.7 µM).

In the case of `COC(=O)C1CCCC(NCc2n[nH]c3cccc(OCc4ccc(C(C)(C)C)cc4)c23)C1` (stereo not given), the IC50 against DNA gyrase [1] is 8.9 µM; in the experiment with Nucleic Acid, above 128 µg/mL; at DNA topoisomerase II it was above 400 µg/mL. The MIC is 8 µg/mL (≈ 17.8 µM) with Enterococcus faecalis [2] (setting [8]), 4 µg/mL (≈ 8.9 µM) with Enterococcus faecalis [3] (setting [9]), 4 µg/mL (≈ 8.9 µM) in the experiment with Staphylococcus aureus [4] (setting [7]) and 4 µg/mL (≈ 8.9 µM) in the experiment with Staphylococcus aureus [5] (setting [7]).

In turn, `COC(=O)C1CCCC(Nc2[nH]nc3cccc(OCc4ccccc4)c23)C1` (stereo not given) gave an IC50 against DNA gyrase [1] of 21.1 µM. In addition, the MIC with Enterococcus faecalis [2] (setting [8]), with Enterococcus faecalis [3] (setting [9]), with Staphylococcus aureus [4] (setting [7]) and with Staphylococcus aureus [5] (setting [7]) was 64 µg/mL (≈ 169 µM) in each case.

For `COC(=O)[C@@H]1C[C@@H](NCc2n[nH]c3cccc(OCc4ccc(C(C)(C)C)cc4)c23)CN1`, on DNA gyrase [1], the IC50 is 18.3 µM. In addition, the MIC was 128 µg/mL (≈ 293 µM) with Enterococcus faecalis [2] (setting [8]), 64 µg/mL (≈ 147 µM) in the experiment on Enterococcus faecalis [3] (setting [9]), 64 µg/mL (≈ 147 µM) with Staphylococcus aureus [4] (setting [7]) and 128 µg/mL (≈ 293 µM) in the experiment with Staphylococcus aureus [5] (setting [7]).

As to `COC(=O)C1CCCC(NCc2n[nH]c3cccc(OCc4ccc(Cl)c(Cl)c4)c23)C1` (stereo not given), the results for the IC50 on DNA gyrase [1], in the experiment on Nucleic Acid and against DNA topoisomerase II were 2.16 µM, above 128 µg/mL and above 400 µg/mL, respectively. For the same compound, the MIC in the experiment with Enterococcus faecalis [2] (setting [8]), in the experiment with Enterococcus faecalis [3] (setting [9]), with Staphylococcus aureus [4] (setting [7]) and with Staphylococcus aureus [5] (setting [7]) was 4 µg/mL (≈ 8.65 µM) each time.

As to `COC(=O)[C@@H]1C[C@H](NCc2n[nH]c3cccc(OCc4ccc(C(C)(C)C)cc4)c23)CN1`, on DNA gyrase [1], the midpoint of inhibition, the IC50, lay at 18.3 µM. The MIC in the experiment on Enterococcus faecalis [2] (setting [8]), in the experiment with Enterococcus faecalis [3] (setting [9]), in the experiment on Staphylococcus aureus [4] (setting [7]) and in the experiment on Staphylococcus aureus [5] (setting [7]) was 64 µg/mL (≈ 147 µM) each time.

`CC(C)(C)c1ccc(COc2cccc3[nH]nc(NCCCC(=O)O)c23)cc1`: inhibition against DNA gyrase [1] was half-maximal at 83.9 µM (IC50). The MIC in the experiment with Enterococcus faecalis [2] (setting [8]), with Enterococcus faecalis [3] (setting [9]), in the experiment with Staphylococcus aureus [4] (setting [7]) and with Staphylococcus aureus [5] (setting [7]) was above 128 µg/mL each time.

Regarding `COC(=O)C1CCN(Cc2n[nH]c3cccc(OCc4ccc(C(C)(C)C)cc4)c23)CC1`, 36.7 µM corresponded to half-maximal inhibition on DNA gyrase [1] (IC50). Further, the MIC in the experiment with Enterococcus faecalis [2] (setting [8]), with Enterococcus faecalis [3] (setting [9]), with Staphylococcus aureus [4] (setting [7]) and in the experiment with Staphylococcus aureus [5] (setting [7]) was 32 µg/mL (≈ 73.5 µM) in each case.

In the case of `COC(=O)C1CCCC(NCc2cc(/C=C/c3cn(C)c4ccc(Cl)cc34)[nH]n2)C1` (stereo in doubt; 7ba), it took 2.34 µM to reach half-maximal inhibition against DNA gyrase [6] (IC50). The results for the MIC in the experiment on Enterococcus faecalis [2], against Staphylococcus aureus [4] and in the experiment with Staphylococcus aureus [5] were 32 µg/mL (≈ 75 µM), 8 µg/mL (≈ 18.7 µM) and 8 µg/mL (≈ 18.7 µM), respectively.

Compound `COC(=O)C1CN(Cc2n[nH]c3cccc(OCc4ccc(C(C)(C)C)cc4)c23)CCC1=O` (stereo not given) gave an IC50 at DNA gyrase [1] of 8.9 µM. The MIC in the experiment on Enterococcus faecalis [2] (setting [8]), with Enterococcus faecalis [3] (setting [9]), in the experiment on Staphylococcus aureus [4] (setting [7]) and in the experiment on Staphylococcus aureus [5] (setting [7]) was above 128 µg/mL in each case.

`COC(=O)C1CCCC(Nc2[nH]nc3cccc(OCc4ccc(C(C)(C)C)cc4)c23)C1` (stereo not given) showed an IC50 at DNA gyrase [1] of 9.18 µM. Further, the minimum inhibitory concentration (MIC) is 8 µg/mL (≈ 18.4 µM) in the experiment with Enterococcus faecalis [2] (setting [8]), 4 µg/mL (≈ 9.18 µM) in the experiment with Enterococcus faecalis [3] (setting [9]), 4 µg/mL (≈ 9.18 µM) in the experiment on Staphylococcus aureus [4] (setting [7]) and 4 µg/mL (≈ 9.18 µM) in the experiment with Staphylococcus aureus [5] (setting [7]).

As to `COC(=O)C1CCCC(Nc2[nH]nc3cccc(OCc4ccc(Cl)c(Cl)c4)c23)C1` (stereo not given), the IC50 at DNA gyrase [1] is 2.23 µM. Moreover, the MIC in the experiment on Enterococcus faecalis [2] (setting [8]), in the experiment with Enterococcus faecalis [3] (setting [9]), with Staphylococcus aureus [4] (setting [7]) and in the experiment with Staphylococcus aureus [5] (setting [7]) was 4 µg/mL (≈ 8.92 µM) throughout.

`COC(=O)C1CCCN(Cc2n[nH]c3cccc(OCc4ccc(C(C)(C)C)cc4)c23)C1` (stereo not given): the midpoint of inhibition at DNA gyrase [1], the IC50, lay at 36.7 µM. Besides, the MIC in the experiment with Enterococcus faecalis [2] (setting [8]) came out at 64 µg/mL (≈ 147 µM); in the experiment with Enterococcus faecalis [3] (setting [9]), 32 µg/mL (≈ 73.5 µM); with Staphylococcus aureus [4] (setting [7]), 32 µg/mL (≈ 73.5 µM); in the experiment on Staphylococcus aureus [5] (setting [7]), 64 µg/mL (≈ 147 µM).

For `COC(=O)C1CCCC(NCc2cc(/C=C/c3cn(C)c4ccc(Cl)cc34)[nH]n2)C1` (stereo in doubt; 7bb), at DNA gyrase [1], the IC50 is 2.34 µM. For the same compound, the MIC was determined as 64 µg/mL (≈ 150 µM) in the experiment on Enterococcus faecalis [2] (setting [8]), 32 µg/mL (≈ 75 µM) in the experiment on Enterococcus faecalis [3] (setting [9]), 16 µg/mL (≈ 37.5 µM) in the experiment with Staphylococcus aureus [4] (setting [7]) and 16 µg/mL (≈ 37.5 µM) with Staphylococcus aureus [5] (setting [7]).

For the compound `COC(=O)C1CCCC(Nc2[nH]nc3cccc(OCc4ccc(Cl)cc4)c23)C1` (stereo not given), the IC50 against DNA gyrase [1] is 38.7 µM. For the same compound, the MIC with Enterococcus faecalis [2] (setting [8]) worked out at 64 µg/mL (≈ 155 µM); in the experiment on Enterococcus faecalis [3] (setting [9]), 32 µg/mL (≈ 77.3 µM); with Staphylococcus aureus [4] (setting [7]), 32 µg/mL (≈ 77.3 µM); in the experiment with Staphylococcus aureus [5] (setting [7]), 32 µg/mL (≈ 77.3 µM).

As to `Clc1cccc(-n2nc(C3CCNCC3)cc2/C=C/c2c[nH]c3ccc(Cl)cc23)c1`, the figures for the IC50 at DNA gyrase [1], with Nucleic Acid and against DNA topoisomerase II were 32 µM, 8 µg/mL (≈ 18.3 µM) and above 400 µg/mL, respectively. The MIC in the experiment with Enterococcus faecalis [2] (setting [8]) was determined as 2 µg/mL (≈ 4.57 µM); with Enterococcus faecalis [3] (setting [9]) it was 2 µg/mL (≈ 4.57 µM); in the experiment with Staphylococcus aureus [4] (setting [7]), 1 µg/mL (≈ 2.29 µM); in the experiment with Staphylococcus aureus [5] (setting [7]), 1 µg/mL (≈ 2.29 µM).

As usually defined, the IC50 is the concentration needed to halve the response being measured. A lower IC50 goes with greater potency. In general, MIC refers to the lowest concentration that inhibits growth of the organism.
